Assay results reported in PubChem BioAssay AID248 (DTP/NCI, 2004).
Several values for one entry are separate records, joined by “and”; a condition that tells them apart may be missing. Equal entries are not always repeated. Inconclusive results and toxic doses are left out. No stated cut-off is given here; in the data, active means T/C of 150% or more; inactive means T/C below 125%.

Test system: L1210 leukemia ip in BDF1 mice, survival T/C
Experiment: NCI In Vivo Anticancer Drug Screen. Data for tumor model L1210 Leukemia (intraperitoneal) in B6D2F1 (BDF1) mice
Details: endpoint: mean survival time, higher = longer survival
Outline: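 Tumor cells were implanted, animals were treated, and survival was followed. The result divides the treated measurement by the vehicle-control measurement.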

[1] = dose: 100.0 mg/kg/injection, schedule: Q01DX001 (ip), vehicle: saline
[2] = dose: 200.0 mg/kg/injection, schedule: Q01DX001 (ip), vehicle: saline
[3] = dose: 400.0 mg/kg/injection, schedule: Q01DX001 (ip), vehicle: saline
[4] = dose: 50.0 mg/kg/injection, schedule: Q01DX001 (ip), vehicle: carboxymethylcellulose (CMC)
[5] = dose: 100.0 mg/kg/injection, schedule: Q01DX001 (ip), vehicle: carboxymethylcellulose (CMC)
[6] = dose: 200.0 mg/kg/injection, schedule: Q01DX001 (ip), vehicle: carboxymethylcellulose (CMC)
[7] = dose: 100.0 mg/kg/injection, schedule: Q04DX002 (ip), vehicle: Klucel (hydroxypropylcellulose) (HPC)
[8] = dose: 200.0 mg/kg/injection, schedule: Q04DX002 (ip), vehicle: Klucel (hydroxypropylcellulose) (HPC)
[9] = dose: 100.0 mg/kg/injection, schedule: Q01DX009 (ip), vehicle: saline with Tween-80
[10] = dose: 100.0 mg/kg/injection, schedule: Q04DX003 (ip), vehicle: saline with Tween-80
[11] = dose: 200.0 mg/kg/injection, schedule: Q01DX009 (ip), vehicle: saline with Tween-80
[12] = dose: 200.0 mg/kg/injection, schedule: Q04DX003 (ip), vehicle: saline with Tween-80
[13] = dose: 400.0 mg/kg/injection, schedule: Q04DX003 (ip), vehicle: saline

Measured: T/C

Cc1ccc(C(=O)[O][Hg][CH2]C2COC([CH2][Hg][O]C(=O)c3ccc(C)cc3)CO2)cc1 (stereo not drawn)
inactive: dose: 3.12 mg/kg/injection, schedule: Q01DX009 (ip), vehicle: Klucel (hydroxypropylcellulose) (HPC) 93 % of control | dose: 6.25 mg/kg/injection, schedule: Q01DX009 (ip), vehicle: Klucel (hydroxypropylcellulose) (HPC) 93 % of control | dose: 6.25 mg/kg/injection, schedule: Q01DX009 (ip), vehicle: saline with Tween-80 113 % of control | dose: 12.5 mg/kg/injection, schedule: Q01DX009 (ip), vehicle: Klucel (hydroxypropylcellulose) (HPC) 94 % of control | dose: 12.5 mg/kg/injection, schedule: Q01DX009 (ip), vehicle: saline with Tween-80 100 % of control | dose: 25.0 mg/kg/injection, schedule: Q01DX009 (ip), vehicle: saline with Tween-80 105 % of control | dose: 25.0 mg/kg/injection, schedule: Q04DX003 (ip), vehicle: other 92 % of control | dose: 50.0 mg/kg/injection, schedule: Q04DX003 (ip), vehicle: other 90 % of control | dose: 100.0 mg/kg/injection, schedule: Q04DX003 (ip), vehicle: other 95 % of control

O=C(COc1ccc(Br)cc1Br)OCCCl
inactive: [1] 100 % of control | [2] 117 % of control | [3] 103 % of control

NC(=S)N/N=C/C=N/NC(N)=S
inactive: [4] 97 % of control | [5] 91 % of control | [6] 95 % of control | dose: 400.0 mg/kg/injection, schedule: Q01DX001 (ip), vehicle: carboxymethylcellulose (CMC) 101 % of control | dose: 1.0 micrograms/kg/injection, schedule: Q01DX009 (ip), vehicle: carboxymethylcellulose (CMC) 107 % of control | dose: 5.0 micrograms/kg/injection, schedule: Q01DX009 (ip), vehicle: carboxymethylcellulose (CMC) 98 % of control

N#CC(Sc1ccccc1)c1ccccc1 (stereo not drawn)
inactive: [7] 119 % of control | [8] 97 % of control | dose: 400.0 mg/kg/injection, schedule: Q04DX002 (ip), vehicle: Klucel (hydroxypropylcellulose) (HPC) 86 % of control

Brc1csnn1
inactive: [4] 98 % of control | [5] 110 % of control | [6] 95 % of control

Cc1csc(/N=C/c2ccc([N+](=O)[O-])o2)n1
inactive: dose: 50.0 mg/kg/injection, schedule: Q01DX009 (ip), vehicle: saline with Tween-80 100 % of control | [9] 105 % of control | [10] 103 % of control | [11] 101 % of control | [12] 97 % of control

COC1OC2COC(c3ccccc3)OC2C(OC(=O)c2ccccc2)C1OC(=S)SCc1ccccc1 (stereo not drawn)
inactive: dose: 12.5 mg/kg/injection, schedule: Q04DX002 (ip), vehicle: saline 107 % of control | dose: 25.0 mg/kg/injection, schedule: Q04DX002 (ip), vehicle: saline 104 % of control | dose: 50.0 mg/kg/injection, schedule: Q04DX002 (ip), vehicle: saline 104 % of control

NC(N)=NNO
inactive: [1] 88 % of control | [2] 95 % of control | [3] 101 % of control

COc1ccc(COC2C(CO)OC(n3cnc4c(N)ncnc43)C2O)cc1 (stereo not drawn)
inactive: dose: 100.0 mg/kg/injection, schedule: Q01DX005 (ip), vehicle: saline 97 % of control | dose: 200.0 mg/kg/injection, schedule: Q01DX005 (ip), vehicle: saline 100 % of control

CCCc1cc(C(C)=O)c[n+](C2OC(COC(C)=O)C(OC(C)=O)C(OC(C)=O)C2OC(C)=O)c1 (stereo not drawn)
inactive: dose: 50.0 mg/kg/injection, schedule: Q01DX005 (ip), vehicle: water 97 % of control | dose: 100.0 mg/kg/injection, schedule: Q01DX005 (ip), vehicle: water 97 % of control

CCCC(=O)OCC1OC(n2cnc3c(=S)nc(N)[nH]c32)C(OC(=O)CCC)C1OC(=O)CCC (stereo not drawn)
inactive: dose: 1.0 mg/kg/injection, schedule: Q01DX Z (ip), vehicle: carboxymethylcellulose (CMC) 109 % of control | dose: 1.5 mg/kg/injection, schedule: Q01DX Z (ip), vehicle: carboxymethylcellulose (CMC) 117 % of control | dose: 2.0 mg/kg/injection, schedule: Q01DX Z (ip), vehicle: carboxymethylcellulose (CMC) 112 % of control | dose: 2.3 mg/kg/injection, schedule: Q01DX Z (ip), vehicle: carboxymethylcellulose (CMC) 124 % of control | dose: 3.0 mg/kg/injection, schedule: Q01DX Z (ip), vehicle: carboxymethylcellulose (CMC) 117 % of control | dose: 9.7 mg/kg/injection, schedule: Q01DX Z (oral), vehicle: carboxymethylcellulose (CMC) 106 % of control | dose: 27.0 mg/kg/injection, schedule: Q01DX Z (oral), vehicle: carboxymethylcellulose (CMC) 115 % of control | dose: 37.0 mg/kg/injection, schedule: Q01DX Z (ip), vehicle: carboxymethylcellulose (CMC) 112 % of control and 118 % of control | dose: 125.0 mg/kg/injection, schedule: Q01DX Z (oral), vehicle: carboxymethylcellulose (CMC) 119 % of control
active: dose: 5.0 mg/kg/injection, schedule: Q01DX Z (ip), vehicle: carboxymethylcellulose (CMC) 154 % of control | dose: 17.0 mg/kg/injection, schedule: Q01DX Z (ip), vehicle: carboxymethylcellulose (CMC) 157 % of control and 159 % of control | dose: 25.0 mg/kg/injection, schedule: Q01DX Z (ip), vehicle: carboxymethylcellulose (CMC) 152 % of control

COc1cc([N+](=O)[O-])ccc1NC(=O)Oc1ccc(NC(C)=O)cc1
inactive: dose: 100.0 mg/kg/injection, schedule: Q01DX009 (ip), vehicle: Klucel (hydroxypropylcellulose) (HPC) 101 % of control | dose: 200.0 mg/kg/injection, schedule: Q01DX009 (ip), vehicle: Klucel (hydroxypropylcellulose) (HPC) 106 % of control | dose: 400.0 mg/kg/injection, schedule: Q01DX009 (ip), vehicle: Klucel (hydroxypropylcellulose) (HPC) 91 % of control

O=S(=O)(Cc1ccccc1)N1CCCCC1
inactive: [7] 99 % of control | [8] 99 % of control

COc1ccc(C(=O)C(C)Br)c(OCc2ccccc2)c1OC (stereo not drawn)
inactive: [9] 107 % of control | [10] 106 % of control | [11] 97 % of control | [12] 90 % of control | dose: 400.0 mg/kg/injection, schedule: Q01DX009 (ip), vehicle: saline with Tween-80 98 % of control | dose: 400.0 mg/kg/injection, schedule: Q04DX003 (ip), vehicle: saline with Tween-80 105 % of control

CC(=NC(c1ccccc1)c1ccccc1)N(C)C
inactive: dose: 100.0 mg/kg/injection, schedule: Q04DX002 (ip), vehicle: saline with Tween-80 104 % of control

CC(=O)OCC1OC(n2ccc(NC(=S)Nc3ccn(C4OC(COC(C)=O)C(OC(C)=O)C4OC(C)=O)c(=O)n3)nc2=O)C(OC(C)=O)C1OC(C)=O (stereo not drawn)
inactive: [3] 100 % of control | [13] 105 % of control | dose: 800.0 mg/kg/injection, schedule: Q01DX001 (ip), vehicle: saline 96 % of control | dose: 800.0 mg/kg/injection, schedule: Q01DX009 (ip), vehicle: saline 116 % of control | dose: 800.0 mg/kg/injection, schedule: Q04DX003 (ip), vehicle: saline 98 % of control | dose: 1600.0 mg/kg/injection, schedule: Q01DX001 (ip), vehicle: saline 96 % of control | dose: 1600.0 mg/kg/injection, schedule: Q04DX003 (ip), vehicle: saline 100 % of control

COc1ccc(C2N(C=O)CC34CC(=O)C=CC23C4)cc1O (stereo not drawn)
inactive: dose: 100.0 mg/kg/injection, schedule: Q04DX003 (ip), vehicle: saline 95 % of control | dose: 200.0 mg/kg/injection, schedule: Q04DX003 (ip), vehicle: saline 93 % of control | [13] 95 % of control

O=[N+]([O-])c1ccccc1CN1CCCCC1
inactive: dose: 5.0 mg/kg/injection, schedule: Q01DX001 (ip), vehicle: saline 102 % of control | dose: 10.0 mg/kg/injection, schedule: Q01DX001 (ip), vehicle: saline 102 % of control | dose: 20.0 mg/kg/injection, schedule: Q01DX001 (ip), vehicle: saline 102 % of control

CCN1CCCC(Nc2cc(C)nc(/N=C(\N)Nc3ccc(Cl)c(Cl)c3)n2)C1 (stereo not drawn)
inactive: dose: 75.0 mg/kg/injection, schedule: Q01DX001 (ip), vehicle: saline 92 % of control

CN=C(N)c1ccc(NC(=O)/C=C\c2ccc(/C=C/C(=O)Nc3ccc(C(N)=NC)cc3)cc2)cc1
active: dose: 120.0 mg/kg/injection, schedule: Q01DX Z (ip), vehicle: saline 179 % of control
inactive: dose: 15.0 mg/kg/injection, schedule: Q01DX Z (ip), vehicle: saline 121 % of control | dose: 60.0 mg/kg/injection, schedule: Q01DX Z (oral), vehicle: saline 100 % of control | dose: 120.0 mg/kg/injection, schedule: Q01DX Z (oral), vehicle: saline 100 % of control | dose: 240.0 mg/kg/injection, schedule: Q01DX Z (oral), vehicle: saline 101 % of control | dose: 480.0 mg/kg/injection, schedule: Q01DX Z (oral), vehicle: saline 95 % of control
